{"source": "patent US20260284074A1", "about": "“ENT1 Inhibitors in Combination with Checkpoint Inhibitors” (iTeos Belgium SA, priority 2023, published 2026)", "key": {"ENT1 [1]": {"molecular_target": "T1, ENT1 (Homo sapiens, UniProt Q99808)", "T1 sequence (Q99808 1-456)": "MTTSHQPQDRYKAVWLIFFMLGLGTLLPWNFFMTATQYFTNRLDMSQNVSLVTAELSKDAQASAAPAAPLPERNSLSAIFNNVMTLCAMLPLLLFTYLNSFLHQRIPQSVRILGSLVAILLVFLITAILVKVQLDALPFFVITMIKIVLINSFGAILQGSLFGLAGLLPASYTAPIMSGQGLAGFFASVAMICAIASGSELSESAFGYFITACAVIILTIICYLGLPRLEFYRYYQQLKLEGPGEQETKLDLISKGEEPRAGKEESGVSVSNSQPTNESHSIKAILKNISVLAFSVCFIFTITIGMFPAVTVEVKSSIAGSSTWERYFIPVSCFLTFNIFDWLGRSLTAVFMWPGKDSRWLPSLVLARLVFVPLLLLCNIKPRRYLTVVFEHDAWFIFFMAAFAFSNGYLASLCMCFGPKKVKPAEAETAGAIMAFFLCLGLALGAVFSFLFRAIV", "test": "ENT1 transport inhibition assay (uridine transport)", "type": "cell-based"}, "[2]": {"tested_on": "tumor infiltrating T cells", "test": "T cell proliferation in dissociated human tumor cell suspension cultures with ATP", "type": "cell-based", "conditions": "500 μM ATP; CD3/CD28 microbeads and IL-2; Compound 1 300 nM; anti-PD-1 10 μg/mL; 3 days", "experimental": "(§1) Human tumors were dissociated, and cells were CFSE-labelled and stimulated with CD3/CD28 microbeads and IL-2 in the presence of 500 μM of ATP as a source of adenosine.\n(§2) Human tumor pieces were rinsed with cold PBS and cut into 1 to 2 mm fragments with a scalpel blade and transferred into GentleMACS C tubes. Dissociation of the tissue was completed with the Tumor Dissociation kit (Miltenyi Biotec) according to the manufacturer's instruction. Briefly, 5 mL of dissociation solution—containing 200 μL of enzyme H, 20 μL of enzyme R and 25 μL of enzyme A and RPMI until 5 mL—was added per gram of tumor. The tube was placed in the gentleMACS dissociator and the 1st program was run. An incubation step of 30 minutes at 37° C. was applied with rotation (MACSmix tube rotator). After this incubation, a quick centrifugation (30×rcf, 1 min) was performed, the supernatant containing dissociated cells was collected in a new tube containing FBS (30% of the total volume with supernatant) and placed at 4° C. […] A short centrifugation was performed, the cells in supernatant were pooled with the 1st collection and filtered through a 100 μm cell strainer which was washed with 10 mL RPMI 10% FBS 2% P/S. After centrifugation at 350×rcf for 10 min, cells were resuspended in 20 mL RPMI 10% FBS 2% P/S and counted with a haemocytometer. […]"}, "[3]": {"tested_on": "TNF, IFNγ, and granzyme B", "test": "Cytokine levels in supernatants of dissociated human tumor cell cultures with ATP", "type": "cell-based", "conditions": "500 μM ATP; Compound 1 300 nM; culture supernatants", "experimental": "as §1, §2"}, "ENT1 [4]": {"tested_on": "ENT1", "test": "ENT1 expression (FIG. 28C)", "type": "cell-based, human", "experimental": "FIGS. 28A, 28B, and 28C show the results of an experiment whereby human tumors were dissociated, and cells were CFSE-labelled and stimulated with CD3/CD28 microbeads and IL-2 in the presence of 500 μM of ATP as a source of adenosine. FIGS. 28A and 28B show data of Compound 1-mediated rescue of CD8+ T cell proliferation and TNF, IFNγ, and granzyme B, respectively, from dissociated tumor cell suspension cultures. Symbols represent each donor, bars are group mean±s.d. One-way RM ANOVA with Tukey's multiple comparisons test."}, "human T cells": {"tested_on": "human T cells", "test": "CMV pp65 peptide-specific T cell expansion and antigen-specific killing with ATP", "type": "cell-based", "conditions": "300 μM ATP as a source of adenosine", "experimental": "FIGS. 29A and 29B show the results of an experiment whereby human T cells were activated in the presence of 300 μM ATP and Compound 1, anti-PD-1, or Compound 1 and anti-PD-1.\nHuman T cells were activated in the presence of 300 μM ATP and Compound 1, anti-PD-1, or Compound 1 and anti-PD-1. CD8+ T cell population was monitored by tetramer-positive (Tet+) staining data. […] (See FIGS. 29A-29B)."}}, "note": "Entries after “also recorded” stand apart in the source; their conditions may differ."}
{"smiles": "COc1cc(C(=O)O[C@@H]2CCCOc3cc(cc(OC)c3OC)C(=O)NCCCN3CCCN(CC2)CC3)cc(OC)c1OC", "note": "[Compound 1, (12R)-7^4,7^5-dimethoxy-6-oxo-8-oxa-5-aza-1(1,4)-diazepana-7(1,3)-benzenacyclotetradecaphane-12-yl 3,4,5-trimethoxybenzoate]", "values": [{"measurement": "Potency of inhibition of ENT1-mediated uridine transport (in words)", "setting": "ENT1 [1]", "result": "nanomolar potency"}, {"measurement": "IC50", "setting": "ENT1 [1]; read-out: IC50, ENT1 inhibition (ENT1-mediated uridine transport)", "result": 2.2, "unit": "nM"}, {"measurement": "Rescue of T cell proliferation suppressed by ATP", "setting": "[2]", "result": "restored; also recorded: partially reversed"}, {"measurement": "Production of TNF, IFNγ, and granzyme B suppressed by ATP", "setting": "[3]", "result": "restored, to varying extents"}, {"measurement": "ENT1 expression", "setting": "ENT1 [4]", "result": "suppresses"}, {"measurement": "Antigen-specific killing activity", "setting": "human T cells", "result": "restoration"}, {"measurement": "CMV pp65 peptide-specific T cell expansion", "setting": "human T cells; tetramer-positive CD8+ T cells", "result": "restores"}]}
